Results taken from patent US20240083886A1, “HETEROCYCLIC GLP-1 AGONISTS” (Gasherbrum Bio, Inc., priority 2020, published 2024).

Target: GLP-1 Receptor (Homo sapiens, UniProt P43220)
Assay: GLP-1R agonist cAMP stimulation assay
Format: cell-based
Conditions: not given
Procedure, shortened: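 HEK293/CRE-Luc cells stably expressing GLP-1R, 1000 cells/well in DPBS with 0.5 mM IBMX and 0.1% BSA, exposed to ½-log compound dilutions 30 min at 37 °C. cAMP measured by HTRF (665/615 nm) after 1 h at room temperature. % activity normalised between vehicle and MAX controls.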

Chain of GLP-1 Receptor (P43220 24-463, species assumed): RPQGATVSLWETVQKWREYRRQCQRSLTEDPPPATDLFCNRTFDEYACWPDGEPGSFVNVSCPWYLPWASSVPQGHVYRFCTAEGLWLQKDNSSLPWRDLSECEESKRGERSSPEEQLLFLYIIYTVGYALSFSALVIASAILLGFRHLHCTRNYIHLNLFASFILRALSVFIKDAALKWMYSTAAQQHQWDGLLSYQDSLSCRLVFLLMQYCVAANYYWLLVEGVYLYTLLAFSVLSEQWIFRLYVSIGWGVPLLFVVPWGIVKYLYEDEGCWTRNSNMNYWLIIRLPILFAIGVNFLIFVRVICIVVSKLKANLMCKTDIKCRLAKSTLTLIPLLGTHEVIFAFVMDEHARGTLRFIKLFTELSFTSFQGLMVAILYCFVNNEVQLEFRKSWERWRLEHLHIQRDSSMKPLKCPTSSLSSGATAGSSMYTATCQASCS

| EC50 | Compound |
| --- | --- |
| 0.13 nM | Cc1nnc(-c2cc3nc(CN4CCC(Oc5nc(Cc6ccc(Cl)cc6F)ncc5F)CC4)n(C[C@@H]4CCO4)c3cn2)[nH]1 [Compound 170a, 2-[(4-chloro-2-fluorophenyl)methyl]-5-fluoro-4-[(1-{[6-(5-methyl-4H-1,2,4-triazol-3-yl)-3-{[(2S)-oxetan-2-yl]methyl}-3H-imidazo[4,5-c]pyridin-2-yl]methyl}piperidin-4-yl)oxy]pyrimidine] |
| 0.32 nM | Cc1n[nH]c(-c2ccc3c(c2)nc(CN2CCC(Oc4ccnc(Cc5ccc(Cl)cc5)n4)CC2)n3C[C@@H]2CCO2)n1 [Compound 126a, 2-{[4-({2-[(4-chlorophenyl)methyl]pyrimidin-4-yl}oxy)piperidin-1-yl]methyl}-5-(3-methyl-1H-1,2,4-triazol-5-yl)-1-{[(2S)-oxetan-2-yl]methyl}-1H-1,3-benzodiazole] |
| 1.8 nM | Cc1cc(-c2ccc3c(c2)nc(CN2CCC(Oc4ccnc(Cc5ccc(Cl)cc5)n4)CC2)n3C[C@@H]2CCO2)[nH]n1 [Compound 131a, 2-{[4-({2-[(4-chlorophenyl)methyl]pyrimidin-4-yl}oxy)piperidin-1-yl]methyl}-5-(3-methyl-1H-pyrazol-5-yl)-1-{[(2S)-oxetan-2-yl]methyl}-1H-1,3-benzodiazole] |
| 1.7 nM | FC(F)(F)c1nnc(-c2cc3nc(CN4CCC(Oc5cccc(Cc6ccc(Cl)cc6)n5)CC4)n(C[C@@H]4CCO4)c3cn2)[nH]1 [Compound 140a, 2-[(4-chlorophenyl)methyl]-6-({1-[(3-{[(2S)-oxetan-2-yl]methyl}-6-[5-(trifluoromethyl)-4H-1,2,4-triazol-3-yl]-3H-imidazo[4,5-c]pyridin-2-yl)methyl]piperidin-4-yl}oxy)pyridine] |
| 0.59 nM | Cc1ccc(-c2ccc3c(c2)nc(CN2CCC(Oc4ccnc(Cc5ccc(Cl)cc5)n4)CC2)n3C[C@@H]2CCO2)nn1 [Compound 124a, 2-{[4-({2-[(4-chlorophenyl)methyl]pyrimidin-4-yl}oxy)piperidin-1-yl]methyl}-5-(6-methylpyridazin-3-yl)-1-{[(2S)-oxetan-2-yl]methyl}-1H-1,3-benzodiazole] |

Same assay, conditions: HEK293/GLP1R/CRE-LUC cells, cAMP dynamic 2 Kit (Cisbio), 30 min incubation at 37° C.; read-out: EC50

| EC50 | Compound |
| --- | --- |
| 4.4 nM | FC(F)(F)c1cnn(Cc2cccc(OC3CCN(Cc4nc5cc(-c6nnc(C(F)(F)F)[nH]6)ncc5n4C[C@@H]4CCO4)CC3)n2)c1 [Compound 186a, 2-({1-[(3-{[(2S)-oxetan-2-yl]methyl}-6-[5-(trifluoromethyl)-4H-1,2,4-triazol-3-yl]-3H-imidazo[4,5-c]pyridin-2-yl)methyl]piperidin-4-yl}oxy)-6-{[4-(trifluoromethyl)-1H-pyrazol-1-yl]methyl}pyridine] |
| 0.38 nM | Fc1cc(Cl)ccc1Cc1cccc(OC2CCN(Cc3nc4cc(-c5nnn[nH]5)ccc4n3C[C@@H]3CCO3)CC2)n1 [Compound 110a, 2-{[4-({6-[(4-chloro-2-fluorophenyl)methyl]pyridin-2-yl}oxy)piperidin-1-yl]methyl}-1-{[(2S)-oxetan-2-yl]methyl}-5-(1H-1,2,3,4-tetrazol-5-yl)-1H-1,3-benzodiazole] |
| 0.2 nM | Fc1cc(Cl)ccc1Cc1cccc(OC2CCN(Cc3nc4cc(-c5nnn[nH]5)ncc4n3C[C@@H]3CCO3)CC2)n1 [Compound 176a, 2-[(4-chloro-2-fluorophenyl)methyl]-6-({1-[(3-{[(2S)-oxetan-2-yl]methyl}-6-(1H-1,2,3,4-tetrazol-5-yl)-3H-imidazo[4,5-c]pyridin-2-yl)methyl]piperidin-4-yl}oxy)pyridine] |
| 0.2 nM | N#CC1(Cn2c(CN3CCC(Oc4nc(Cc5ccc(Cl)cc5)ncc4F)CC3)nc3cc(-c4nnc(C(F)(F)F)[nH]4)ncc32)CC1 [Compound 178, 1-[(2-{[4-({2-[(4-chlorophenyl)methyl]-5-fluoropyrimidin-4-yl}oxy)piperidin-1-yl]methyl}-6-[5-(trifluoromethyl)-4H-1,2,4-triazol-3-yl]-3H-imidazo[4,5-c]pyridin-3-yl)methyl]cyclopropane-1-carbonitrile] |
| 0.37 nM | COc1ccc(C(=O)Nc2ccc3c(c2)nc(CN2CCC(Oc4ccnc(Cc5ccc(Cl)cc5F)n4)CC2)n3C[C@@H]2CCO2)cn1 [Compound 112a, N-(2-{[4-({2-[(4-chloro-2-fluorophenyl)methyl]pyrimidin-4-yl}oxy)piperidin-1-yl]methyl}-1-{[(2S)-oxetan-2-yl]methyl}-1H-1,3-benzodiazol-5-yl)-6-methoxypyridine-3-carboxamide] |
| 0.24 nM | N#Cc1ccc(Cc2cccc(OC3CCN(Cc4nc5cc(-c6nnc(C(F)(F)F)[nH]6)ncc5n4C[C@@H]4CCO4)CC3)n2)c(F)c1 [Compound 190a, 3-fluoro-4-{[6-({1-[(3-{[(2S)-oxetan-2-yl]methyl}-6-[5-(trifluoromethyl)-4H-1,2,4-triazol-3-yl]-3H-imidazo[4,5-c]pyridin-2-yl)methyl]piperidin-4-yl}oxy)pyridin-2-yl]methyl}benzonitrile] |
| 16 nM | O=C(O)c1ccc2c(c1)nc(CN1CCC(Oc3cccc(Cc4ccc(Cl)cc4F)n3)CC1)n2C[C@@H]1CCO1 [Compound 188a, 2-{[4-({6-[(4-chloro-2-fluorophenyl)methyl]pyridin-2-yl}oxy)piperidin-1-yl]methyl}-1-{[(2S)-oxetan-2-yl]methyl}-1H-1,3-benzodiazole-5-carboxylic acid] |
| 0.81 nM | Fc1cnc(Cc2ccc(Cl)cc2)nc1O[C@H]1CC[C@H](Cc2nc3cc(-c4nnc(C(F)(F)F)[nH]4)ccc3n2C[C@@H]2CCO2)CC1 [Compound 173a, 1-{[(2S)-oxetan-2-yl]methyl}-2-{[(1r,4r)-4-({2-[(4-chlorophenyl)methyl]-5-fluoropyrimidin-4-yl}oxy)cyclohexyl]methyl}-5-[5-(trifluoromethyl)-4H-1,2,4-triazol-3-yl]-1H-1,3-benzodiazole] |
| 0.13 nM | Fc1cc(Cl)ccc1Cc1cccc(OC2CCN(Cc3nc4cc(-c5nnc(C(F)(F)F)[nH]5)cnc4n3C[C@@H]3CCO3)CC2)n1 [Compound 141a, 2-[(4-chloro-2-fluorophenyl)methyl]-6-({1-[(3-{[(2S)-oxetan-2-yl]methyl}-6-[5-(trifluoromethyl)-4H-1,2,4-triazol-3-yl]-3H-imidazo[4,5-b]pyridin-2-yl)methyl]piperidin-4-yl}oxy)pyridine] |
| 0.17 nM | Fc1cc(Cl)ccc1Cc1ncc(F)c(OC2CCN(Cc3nc4cc(-c5nnn[nH]5)ncc4n3C[C@@H]3CCO3)CC2)n1 [Compound 175a, 2-[(4-chloro-2-fluorophenyl)methyl]-5-fluoro-4-({1-[(3-{[(2S)-oxetan-2-yl]methyl}-6-(1H-1,2,3,4-tetrazol-5-yl)-3H-imidazo[4,5-c]pyridin-2-yl)methyl]piperidin-4-yl}oxy)pyrimidine] |
| 5.8 nM | Cc1ccncc1C(=O)Nc1ccc2c(c1)nc(CN1CCC(Oc3ccnc(Cc4ccc(Cl)cc4)n3)CC1)n2C[C@@H]1CCO1 [Compound 105a, N-(2-{[4-({2-[(4-chlorophenyl)methyl]pyrimidin-4-yl}oxy)piperidin-1-yl]methyl}-1-{[(2S)-oxetan-2-yl]methyl}-1H-1,3-benzodiazol-5-yl)-4-methylpyridine-3-carboxamide] |
| 0.056 nM | Fc1cnc(Cc2ccc(Cl)cc2)nc1OC1CCN(Cc2nc3cc(-c4nnc(C(F)(F)F)[nH]4)ncc3n2C[C@@H]2CCO2)CC1 [Compound 149a, 2-[(4-chlorophenyl)methyl]-5-fluoro-4-({1-[(3-{[(2S)-oxetan-2-yl]methyl}-6-[5-(trifluoromethyl)-4H-1,2,4-triazol-3-yl]-3H-imidazo[4,5-c]pyridin-2-yl)methyl]piperidin-4-yl}oxy)pyrimidine] |
